# In the supplement of paper PMC10307832:
# Assays:
# Assay in all cases: relative viability (nuclei count vs DMSO), 5 days (fraction); higher = more cells survive
# Axitinib + Dasatinib = compound: CNC(=O)c1ccccc1Sc1ccc2c(/C=C/c3ccccn3)n[nH]c2c1 [Axitinib] + Cc1nc(Nc2ncc(C(=O)Nc3c(C)cccc3Cl)s2)cc(N2CCN(CCO)CC2)n1 [Dasatinib] (partner 0.075 µM)
# Procedure, shortened: (§1)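 Nuclei were stained with Hoechst during a one-step fixation (final 0.05% Triton X-100, 1% formaldehyde, 1 ug/ml Hoechst) carried out 5 days after dosing, then counted on 4× images. The cells, lung cancer lines in 1536-well plates, had been dosed by pin tool the day after seeding with one drug alone or a fixed anchor-drug dose plus five library-drug doses (not always all listed) in √10 steps. Relative viability is the nuclei count in treated wells divided by that in vehicle wells, and each value is the median of duplicate plates.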
# [1] = compound: CC1=CC=C(C=C1)C(=O)CN2C3=C(CCCC3)SC2=N [Pifithrin_alpha] + Nc1ncn([C@H]2C[C@H](O)[C@@H](CO)O2)c(=O)n1 [Decitabine] (partner 2 µM)
# Procedure, shortened: as §1
# Bemcentinib + Bortezomib = compound: Nc1nc(Nc2ccc3c(c2)CC[C@@H](N2CCCC2)CC3)nn1-c1cc2c(nn1)-c1ccccc1CCC2 [Bemcentinib] + CC(C)C[C@H](NC(=O)[C@H](Cc1ccccc1)NC(=O)c1cnccn1)B(O)O [Bortezomib] (partner 0.002 µM)
# Procedure, shortened: as §1
# Bemcentinib + Trametinib = compound: Nc1nc(Nc2ccc3c(c2)CC[C@@H](N2CCCC2)CC3)nn1-c1cc2c(nn1)-c1ccccc1CCC2 [Bemcentinib] + CC(=O)Nc1cccc(-n2c(=O)n(C3CC3)c(=O)c3c(Nc4ccc(I)cc4F)n(C)c(=O)c(C)c32)c1 [Trametinib] (partner 0.02 µM)
# Procedure, shortened: as §1
Cell Line,relative viability (Axitinib + Dasatinib; first compound 0.005 µM),relative viability (Axitinib + Dasatinib; first compound 0.01581 µM),relative viability (Axitinib + Dasatinib; first compound 0.05 µM),relative viability (Axitinib + Dasatinib; first compound 0.5 µM),relative viability ([1]; first compound 3.162 µM),relative viability ([1]; first compound 10 µM),relative viability ([1]; first compound 31.62 µM),relative viability ([1]; first compound 100 µM),relative viability (Bemcentinib + Bortezomib; first compound 0.04 µM),relative viability (Bemcentinib + Bortezomib; first compound 0.1265 µM),relative viability (Bemcentinib + Bortezomib; first compound 0.4 µM),relative viability (Bemcentinib + Bortezomib; first compound 1.265 µM),relative viability (Bemcentinib + Bortezomib; first compound 4 µM),relative viability (Axitinib + Dasatinib; first compound 0.1581 µM),relative viability (Bemcentinib + Trametinib; first compound 0.04 µM),relative viability (Bemcentinib + Trametinib; first compound 0.1265 µM),relative viability (Bemcentinib + Trametinib; first compound 0.4 µM),relative viability (Bemcentinib + Trametinib; first compound 1.265 µM),relative viability (Bemcentinib + Trametinib; first compound 4 µM),relative viability ([1]; first compound 1 µM)
ABC-1,0.738,0.686,0.486,0.638,1.02,1.03,1,0.803,0.269,0.285,0.289,0.285,0.257,–,–,–,–,–,–,–
CAL-12T,0.603,0.448,0.367,0.405,–,–,–,–,0.977,0.936,0.953,0.736,0.908,0.38,0.347,0.321,0.302,0.339,0.372,–
NCI-H1703,–,–,–,–,–,–,–,–,0.25,0.237,0.292,0.284,0.29,–,–,–,–,–,–,–
HCC-44,–,–,–,–,0.919,0.812,0.779,0.857,0.974,0.92,0.992,0.89,0.917,–,1.11,1.13,1.06,1.18,1.18,0.859
NCI-H522,1.51,0.842,0.883,0.728,0.722,0.693,0.673,0.579,–,–,–,–,–,0.898,0.75,0.742,0.754,0.771,0.788,0.681
NCI-H2228,0.471,0.616,0.558,0.697,–,–,–,–,–,1.04,1.12,0.93,1.08,0.476,0.202,0.652,0.533,0.651,0.565,–
NCI-H1623,0.574,0.477,0.559,0.506,–,–,–,–,–,–,–,–,–,0.528,–,–,–,–,–,–
SK-MES-1,0.42,0.435,0.446,0.622,0.424,0.353,0.411,0.352,–,–,–,–,–,0.382,0.625,0.587,0.561,0.587,0.61,0.351
NCI-H2170,0.606,0.579,0.64,0.522,0.453,0.476,0.427,0.453,–,–,–,–,–,0.582,0.94,0.967,0.92,0.968,0.936,0.48
NCI-H1563,0.482,0.456,0.457,0.426,–,–,–,–,0.811,0.86,0.859,0.992,0.863,0.449,–,–,–,–,–,–
LK-2,0.333,0.305,0.343,0.223,0.266,0.309,0.224,0.316,–,–,–,–,–,0.282,0.798,0.908,0.629,0.795,0.885,0.202
NCI-H1395,0.403,0.425,0.39,0.397,0.649,0.709,–,0.735,–,–,–,–,–,0.404,–,1.12,1.02,1.2,1.11,–
